We go through 2 substances from publication PMC5209312, “Glycin-rich antimicrobial peptide YD1 from B. amyloliquefaciens, induced morphological alteration in and showed affinity for plasmid DNA of E. coli” (AMB Express, 2017).

For one series, the system named is VRE 2. In kind it is cell-based, vancomycin-resistant enterococci. The procedure: (§1) The minimal inhibitory concentration (MIC) was determined according to the method described by Weigand et al. ([2008]).
In a further series the test system is VRE 5. In kind it is cell-based, vancomycin-resistant enterococci. The procedure:
as §1

The subject of series [1] is Alcaligenes faecalis ATCC 1004. Format: cell-based. The procedure:
as §1

Series [2] relates to Bacillus subtilis ATCC 6633. In kind it is cell-based. The procedure: as §1
The subject of series [3] is Enterococcus faecalis ATCC 29212. Format: cell-based. The protocol:
as §1

Series [4] has as its system Escherichia coli KCTC 1923. In kind it is cell-based. The protocol:
as §1

In series [5] the test system is Escherichia coli KCTC1923 (E. coli), methicillin-resistant Staphylococcus aureus B15 (MRSA), and vancomycin-resistant enterococci (VRE). In kind it is cell-based. The procedure:
as §1

Series [6] relates to Micrococcus luteus ATCC 9341. In kind it is cell-based. The protocol: as §1
Series [7] has as its system Mycobacterium smegmatis ATCC 9341. Format: cell-based. The procedure:
as §1

Series [8] concerns Pseudomonas aeruginosa KCTC 1637. In kind it is cell-based. The procedure: as §1
Series [9] deals with Salmonella Typhimurium KCTC 1925. In kind it is cell-based. The procedure:
as §1

Another series relates to VRSA. Format: cell-based. The procedure: as §1
The subject of series [10] is Mycobacterium smegmatis ATCC 9341. Format: cell-based. The procedure:
A filter paper disc (8 mm, Toyo Roshi Kaisha, Japan) saturated with antimicrobial sample (40 µL) was placed on the surface of petri dish (87 mm × 15 mm) containing Mueller Hinton Agar (MHA). The plate was incubated at 37 °C, and a clear zone of inhibition surrounding the paper disc was measured in millimeter (mm). […] The titer of the antimicrobial substance solution, in AU/mL, was calculated as (1000/d) D, where D was the dilution factor, and d was the dose, the amount of antimicrobial substance solution added to each spot. AU and the zone of inhibition were measured against Mycobacterium smegmatis ATCC 9341 while optimizing CBSYD1 media.
This is another data set of the same source.

The next series relates to E. coli spheroplasts. Format: cell-based, Escherichia coli. To be noted: 2 h, 40 µg/mL. The procedure: Spheroplasts are gram-negative bacteria in which nearly all of the outer membrane (OM) has been removed. Lysozyme destroys the peptide bonds in peptidoglycan and weakens the cell wall. E. coli was grown in 10 mL of MHB, incubated overnight at 37 °C on a shaker at 180 rpm. Each culture (100 µL) was used to inoculate 20 mL of fresh media and incubated at 37 °C for 2 h at 180 rpm. Spheroplasts were prepared as described by Kikuchi et al. ([2015]).
Re-suspended spheroplasts and whole cells suspension were adjusted to OD 570 nm of 0.2 and 100 µL of each was added to a clear, flat-bottomed microtiter plate in duplicate wells. Ten microliters of YD1 in 10 mM Tris–HCl buffer (pH 7) was added to test wells for both preparations (spheroplasts and whole cells) at the indicated different final concentrations. To the control, 10 µL of 10 mM Tris–HCl buffer (pH 7) was added in lieu of YD1. The percentage of intact spheroplasts or whole cells was calculated as: =Sample OD at time X/Sample OD at time0×100
Decrease in the OD of the suspension after addition of a membrane-active agent indicates lysis of spheroplasts.

How the values of series [11] were obtained: (§2) The thermal stability of YD1 samples was determined by exposure to 20, 40, 60, 80 and 100 °C for 30 min and to 121 °C/105 kPa for 15 min before analyzing the residual activity. Similarly, pH stability was determined over a range of pH 2–10 using 1 M NaOH or HCl. The effect of protease enzyme on YD1 stability was determined at two different enzyme concentrations (1 and 2 mg/mL).

A further series concerns protease enzymes. The following applies: enzymes at 1 and 2 mg/mL. The procedure:
as §2

For series [12], the system named is Staphylococcus aureus KCTC 1928. The series is described as follows: MIC determination. Format: cell-based. To be noted: method of Wiegand et al. 2008. The procedure:
as §1

For another series, the system named is MRSA B15. In kind it is cell-based, methicillin-resistant Staphylococcus aureus. The following applies: method of Wiegand et al. 2008. The procedure:
as §1

Where two headings read alike, the source gives them in different places. Ends that are not written are not given here. Bounds are passed on as bounds.

In the case of “APKGVQGPNG [YD1, Ala-Pro-Lys-Gly-Val-Gln-Gly-Pro-Asn-Gly]”, the MIC (as a rule, the least concentration at which growth counts as inhibited) with VRE 2 is 64 µg/mL; against VRE 5, 64 µg/mL; in [1] (ATCC 1004) it was above 128 µg/mL; in [2] (ATCC 6633), 64 µg/mL; in series [3] (ATCC 29212), 64 µg/mL; in [4] (KCTC 1923), 8 µg/mL. The MIC is 64 µg/mL in series [6] (ATCC 9341); 8 µg/mL in series [7] (ATCC 9341); 16 µg/mL in series [8] (KCTC 1637); 32 µg/mL in series [9] (KCTC 1925); above 128 µg/mL in the series on VRSA. In [5], the “MIC (range over E. coli KCTC1923, MRSA B15 and VRE)” value is reported as 8 to 64 µg/mL. Also, the “clear zone of inhibition” value in series [10] is reported as “up to 16 mm”. The same substance came in with an intact surviving spheroplasts with E. coli spheroplasts above 88%. Also, the “thermal stability (activity)” value in series [11] (at or above 100 °C (100 °C 30 min; 121 °C/105 kPa 15 min)) is recorded as “decreased sharply”. In series [11] (pH 4–9, tested pH 2–10 with 1 M NaOH or HCl), the “pH stability (residual activity)” value was “completely stable”. In addition, in [11] (up to 80 °C, 30 min exposure), the “thermal stability (residual activity)” value is “completely stable”. In the series on protease enzymes, the “effect of protease enzymes on antimicrobial activity” value is “failed to alter”.
For the substance Bacitracin [reference compound], the MIC in series [12] is above 128 µg/mL; against MRSA B15 it was 64 µg/mL; against VRE 2 (VRE 2, method of Wiegand et al. 2008) it was 32 µg/mL; in the series with VRE 5 (VRE 5, method of Wiegand et al. 2008), 64 µg/mL; in [1] (Alcaligenes faecalis ATCC 1004, method of Wiegand et al. 2008) it was above 128 µg/mL; in series [2] (Bacillus subtilis ATCC 6633, method of Wiegand et al. 2008) it was 64 µg/mL. Further, the MIC is 2 µg/mL in series [3] (Enterococcus faecalis ATCC 29212, method of Wiegand et al. 2008); above 128 µg/mL in series [4] (Escherichia coli KCTC 1923, method of Wiegand et al. 2008); 64 µg/mL in series [6] (Micrococcus luteus ATCC 9341, method of Wiegand et al. 2008); above 128 µg/mL in series [7] (Mycobacterium smegmatis ATCC 9341, method of Wiegand et al. 2008); above 128 µg/mL in series [8] (Pseudomonas aeruginosa KCTC 1637, method of Wiegand et al. 2008); 64 µg/mL in series [9] (Salmonella Typhimurium KCTC 1925, method of Wiegand et al. 2008). The substance also came in with an MIC in the series on VRSA (VRSA, method of Wiegand et al. 2008) above 128 µg/mL.
